Experimental findings from BindingDB's records for doi:10.7270/Q2833QWM (D3R/Abbott, 2015) are described below.

One may read the IC50 as the point on the concentration scale where inhibition reaches its midpoint. Low values mean greater potency, high ones weaker potency.

The target in the assay is T1, tRNA (guanine-N(1)-)-methyltransferase (Haemophilus influenzae (strain ATCC 51907 / DSM 11121 / KW20 / Rd), UniProt P43912).
T1 sequence (P43912 whole entry): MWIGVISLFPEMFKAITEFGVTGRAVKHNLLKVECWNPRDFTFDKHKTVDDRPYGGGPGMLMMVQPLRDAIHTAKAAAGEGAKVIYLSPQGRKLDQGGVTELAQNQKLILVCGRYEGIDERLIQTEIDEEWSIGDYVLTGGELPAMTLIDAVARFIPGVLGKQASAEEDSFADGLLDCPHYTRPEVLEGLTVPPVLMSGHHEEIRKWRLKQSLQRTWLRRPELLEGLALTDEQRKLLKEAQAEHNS
Put plainly: ScintillationProximity_Assay. An excerpt:
ScintillationProximity_Assay
`NC(=O)c1ccc(N[C@@H]2CC[C@@H](O)C2)nc1` [GTC000460A] registered an IC50 of 0.2 µM.
The figure for `Nc1nonc1C(=O)N[C@@H]1C[C@H]1c1ccc(S(N)(=O)=O)cc1` [GTC000466A] is 15.8 µM; for `NC(=O)c1ccc(NCc2ccccc2O)nc1` [GTC000459A] it is 1.26 µM.
The figure for `NC(=O)c1ccc(NC2CCCC2)nc1` [GTC000457A] is 0.2 µM; for `COc1ccccc1CNc1ccc(C(N)=O)cn1` [GTC000454A] it is 0.794 µM.
The figure for `c1cc(-c2c[nH]cn2)ccn1` is 158 µM; for `CC(C)(C)c1cccc(C(=O)NCC2(NC(=O)c3cccc4nocc34)CCCC2)c1` [GTC000450A] it is 0.00501 µM; for `NC(=O)c1ccc(N)nc1` [GTC000445A] it is 25.1 µM.
`COc1ccc(C(=O)n2ncnc2N)cc1` [GTC000473A] gave an IC50 of 2.51 µM.
The figure for `Nc1nonc1C(=O)NCC1CCCCC1` [GTC000462A] is 2 µM; for `NC(=O)c1ccc(N[C@@H]2C[C@H](CO)[C@@H](O)C2)nc1` [GTC000468A] it is 1.59 µM.
Next, `Nc1nonc1C(=O)N[C@@H]1CC[C@H](O)C1` [GTC000456A]: 7.94 µM; `Cc1cccc(C(=O)NCC2(NC(=O)c3cccc4nocc34)CCCC2)c1` [GTC000451A]: 0.158 µM.
As to `Nc1nonc1C(=O)NCc1ccc(Cl)cc1` [GTC000448A], the half-inhibitory concentration (IC50) is 39.8 µM.
Next, `NC(=O)c1ccc(NCc2cccc(O)c2)nc1` [GTC000452A]: 2 µM.
Next, `CC(C)(C)CNc1ncc(C(N)=O)c(N)n1` [GTC000474A]: 0.794 µM.
In turn, `NC(=O)c1ccc(NCc2ccccc2N2CCOCC2)nc1` [GTC000470A] returned an IC50 of 2 µM.
On to `c1cc(-c2ncc[nH]2)ccn1` [GTC000447A], for which the half-maximal inhibitory concentration (IC50) came out at 316 µM.
Turning to `NC(=O)c1ccc(NCC2CCCC2)nc1` [GTC000458A], the IC50 worked out at 0.501 µM.
The figure for `CN(C)c1ccccc1CNc1ccc(C(N)=O)cn1` [GTC000455A] is 6.31 µM.
Next, `Nc1nonc1C(=O)NC1CCNCC1` [GTC000465A]: 20 µM; `NC[C@H]1CCC[C@@H](CNc2ccc(C(N)=O)cn2)C1` [GTC000469A]: 0.501 µM; `CN1CCN(c2ccccc2CNc2ccc(C(N)=O)cn2)CC1` [GTC000471A]: 0.794 µM.
Next, `NC(=O)c1ccc(NCc2ccccc2)nc1` [GTC000444A]: 3.16 µM; `CN1CCN(C(=O)c2nonc2N)CC1` [GTC000472A]: 100 µM.
The compound `CC(C)(C)c1cccc(C(=O)NCC2(NC(=O)c3cccc4nocc34)CCCCC2)c1` [GTC000449A] came in with an IC50 of 0.00501 µM.
In the case of `NC(=O)c1cnc(NC2CCCC2)nc1N` [GTC000464A], the 50% inhibitory concentration (IC50) worked out at 0.631 µM.
`CN(C)c1cccc(CNc2ccc(C(N)=O)cn2)c1` [GTC000453A] gave an IC50 of 3.98 µM.
Turning to `Nc1nonc1C(=O)N1CCN(Cc2ccccn2)CC1` [GTC000463A], the half-inhibitory concentration (IC50) was determined as 15.8 µM.
`NC(=O)c1ccc(NC2CCC(c3ccccc3)C2)nc1` (stereo unspecified) [GTC000467A] showed an IC50 of 0.631 µM.
Next, `Cc1cccc(C(=O)NCCC2(CNc3ccc(C(N)=O)cn3)CCCCC2)c1` [GTC000461A]: 7.94 µM.
